Measured values as given in the NIST ThermoML archive (doi:10.1016/j.tca.2007.04.007).
Numbers after ± are expanded uncertainties.

Test: molar heat capacity at constant pressure
Settings: 101.33 kPa, Crystal, Large sample (1 g) DSC

C[C@@H]1CC[C@H]2[C@@H](C)C(=O)O[C@@H]3O[C@@]4(C)CC[C@@H]1[C@]32OO4 [artemisinin]
Settings | molar heat capacity at constant pressure [J/K/mol]
80.88 K | 106.29 ± 1.6
84.39 K | 107.4 ± 1.7
87.31 K | 111.29 ± 1.7
90.28 K | 115.11 ± 1.8
93.15 K | 118.77 ± 1.8
96.08 K | 122.29 ± 1.9
99.06 K | 126.22 ± 2
101.96 K | 129.96 ± 2
104.91 K | 133.57 ± 2.1
107.91 K | 137.36 ± 2.1
110.85 K | 141.04 ± 2.2
113.72 K | 144.58 ± 2.2
116.65 K | 147.72 ± 2.3
119.63 K | 151.4 ± 2.3
122.57 K | 154.67 ± 2.4
125.44 K | 158.04 ± 2.4
128.38 K | 161.18 ± 2.5
131.37 K | 164.32 ± 2.5
134.31 K | 167.29 ± 2.6
137.21 K | 170.2 ± 2.6
140.06 K | 173.58 ± 2.7
142.85 K | 175.98 ± 2.7
145.7 K | 178.74 ± 2.8
148.61 K | 181.39 ± 2.8
151.48 K | 184.15 ± 2.9
154.31 K | 188.26 ± 2.9
157.09 K | 189.51 ± 2.9
159.85 K | 190.78 ± 3
162.66 K | 193.14 ± 3
165.54 K | 194.65 ± 3
168.38 K | 196.91 ± 3
171.2 K | 197.84 ± 3.1
173.98 K | 199.03 ± 3.1
176.74 K | 201.03 ± 3.1
179.47 K | 203.22 ± 3.1
182.17 K | 204.81 ± 3.2
184.93 K | 207.17 ± 3.2
187.75 K | 209.02 ± 3.2
190.54 K | 210.2 ± 3.3
193.3 K | 211.69 ± 3.3
196.04 K | 214.53 ± 3.3
198.78 K | 218.09 ± 3.4
201.49 K | 234.61 ± 3.6
204.35 K | 248.75 ± 3.9
207.26 K | 254.52 ± 3.9
210.15 K | 259.16 ± 4
213.03 K | 263.67 ± 4.1
215.98 K | 268.33 ± 4.2
218.98 K | 272.61 ± 4.2
221.97 K | 277.47 ± 4.3
224.93 K | 283.14 ± 4.4
227.86 K | 300.11 ± 4.7
230.9 K | 305.21 ± 4.7
234.15 K | 304.08 ± 4.7
237.2 K | 300.49 ± 4.7
240.2 K | 312.96 ± 4.8
243.25 K | 303.71 ± 4.7
246.2 K | 290.19 ± 4.5
249.15 K | 291.35 ± 4.5
252.08 K | 292.72 ± 4.5
254.99 K | 294.78 ± 4.6
257.88 K | 295.87 ± 4.6
260.75 K | 297.43 ± 4.6
263.6 K | 299.57 ± 4.6
266.43 K | 301.66 ± 4.7
269.3 K | 304.16 ± 4.7
272.21 K | 307.87 ± 4.8
275.11 K | 309.22 ± 4.8
278.48 K | 312.58 ± 4.8
282.32 K | 315.57 ± 4.9
286.12 K | 318.4 ± 4.9
289.88 K | 323.79 ± 5
293.71 K | 327.62 ± 5.1
297.59 K | 331.62 ± 5.1
301.45 K | 336.33 ± 5.2
305.28 K | 339.95 ± 5.3
309.08 K | 344.57 ± 5.3
312.86 K | 351.73 ± 5.4
316.64 K | 334.75 ± 5.2
320.44 K | 337.71 ± 5.2
324.16 K | 338.79 ± 5.2
327.84 K | 344.42 ± 5.3
331.58 K | 356.39 ± 5.5
335.37 K | 360.69 ± 5.6
339.11 K | 368.06 ± 5.7
342.41 K | 376.18 ± 5.8
345.26 K | 376.26 ± 5.8
348.11 K | 388.36 ± 6
350.96 K | 394.39 ± 6.1
353.85 K | 397.54 ± 6.2
356.81 K | 403.86 ± 6.3
359.88 K | 413.08 ± 6.4
363.03 K | 429.5 ± 6.7
